# Data taken from ChEMBL document CHEMBL1201862, “PubChem BioAssay data set” (2004).
# Activity calls are given as the source filed them.
# Columns and labels:
# [1] = molecular target: T1, Endoribonuclease toxin MazF (Escherichia coli K-12, UniProt P0AE70); test: MazF toxin RNase activators, dose response, biochemical, fluorescence, single-stranded RNA substrate, uHTS hits (AID 588481); assay type: functional
# T1 sequence (P0AE70 whole entry): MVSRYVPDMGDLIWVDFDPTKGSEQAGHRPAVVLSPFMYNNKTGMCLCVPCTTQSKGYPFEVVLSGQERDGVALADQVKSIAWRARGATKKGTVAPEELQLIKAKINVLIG
# [2] = molecular target: T1, Endoribonuclease toxin MazF; test: fluorescent RNA oligo signal without MazF, dose response, counter-screen for MazEF activator project, biochemical, fluorescence, single-stranded RNase substrate (AID 588502); assay type: functional
# [3] = Luminescence Cell-Based Dose Retest to Confirm Inhibitors of Cancer Stem Cells. [Related pubchem assays (depositor defined):AID2717, AID2721]; assay type: functional; settings: Homo sapiens
# [4] = cytotoxicity in HMLE control line with eGFP shRNA, dose response, counter-screen for HMLE_sh_ECad selective toxicity project, cell-based, HMLE_sh_eGFP, luminescence (AID 463074); assay type: functional, Homo sapiens;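 also: HMLE human mammary epithelial cells expressing control shRNA against eGFP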
# Escherichia coli = test: microbe, parasite or virus in culture
# Streptococcus = test: Group A Streptococcus viability loss, dose response, counter-screen for streptokinase expression inhibitor project, luminescence, BacTiterGlo (AID 1915); assay type: functional, organism-based;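 also: potency for reduction of bacterial viability or growth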
# [5] = system: Streptococcus sp. 'group A'; test: growth inhibition of control SK(-) GAS strain, dose response, counter-screen for streptokinase expression inhibitor project, luminescence, kanamycin, BacTiterGlo, confirmation (AID 1900); assay type: functional, organism-based
# Streptokinase A = molecular target: T2, Streptokinase A (Streptococcus pyogenes serotype M1, UniProt P10520); test: S. pyogenes streptokinase expression inhibitors, potency, dose response, plasminogen activation absorbance, OD405 (AID 1914); assay type: functional, Streptococcus pyogenes M1 GAS;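 also: secreted streptokinase activity via plasminogen activation per viability signal from cell pellet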
# T2 sequence (P10520 whole entry): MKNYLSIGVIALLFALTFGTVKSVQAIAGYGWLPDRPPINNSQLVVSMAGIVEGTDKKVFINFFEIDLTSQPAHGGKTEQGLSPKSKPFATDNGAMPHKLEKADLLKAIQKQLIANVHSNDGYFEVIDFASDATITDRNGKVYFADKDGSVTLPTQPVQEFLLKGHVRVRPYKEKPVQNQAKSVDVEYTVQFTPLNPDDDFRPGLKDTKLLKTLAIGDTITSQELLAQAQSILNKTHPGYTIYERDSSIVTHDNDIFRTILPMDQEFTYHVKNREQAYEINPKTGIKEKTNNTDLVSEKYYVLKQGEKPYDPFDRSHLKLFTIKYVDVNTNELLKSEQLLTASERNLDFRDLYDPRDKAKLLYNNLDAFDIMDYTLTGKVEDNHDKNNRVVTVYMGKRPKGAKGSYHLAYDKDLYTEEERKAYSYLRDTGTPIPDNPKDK
# [6] = off-target signal loss in HeLa-CEM21 co-culture – HeLa F-luc CTL cells, cherry-picked, counter-screen for HIV-1 Env fusion inhibitor project, dose response (AID 652040); assay type: functional, cell-based;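 also: potency for signal decrease marking cytotoxic or nonspecific inhibition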
# [7] = inhibitors of clade B AD8 Env fusion, dose response, cell-based, cherry-pick (AID 652062); assay type: functional;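 also: luciferase signal from cell-cell fusion driven by HIV-1 clade B AD8 Env; potency is for inhibitors of fusion seen as a drop in luminescence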
# [8] = ZM109 Env clade C HIV-1 fusion inhibitors, dose response, HeLa effector, CEM target cells, luciferase, cherry-pick (AID 652058); assay type: functional, cell-based
# HEK293 [9] = test: cells; settings: Homo sapiens
# [10] = inhibitors of HIV Env-driven cell fusion, dose response, cherry-pick (AID 652057); assay type: functional, cell-based
# HEK293 [11] = test: cells; settings: Homo sapiens; remark: listed apart in the source
# [12] = molecular target: Voltage-gated inwardly rectifying potassium channel KCNH2 (Homo sapiens, UniProt Q12809); settings: Potency;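 also: confirmatory quantitative high-throughput screen measuring inhibition of hERG channel activity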
# CAAX prenyl protease 2 = CAAX prenyl protease 2 (Homo sapiens, UniProt Q9Y256); test: human Rce1 protease inhibitors, dose response, biochemical, yeast membranes, quenched-peptide fluorescence, cherry-pick (AID 588849)
# [13] = molecular target: FAD-linked sulfhydryl oxidase ALR (Homo sapiens, UniProt P55789); test: inhibitors of human ALR sulfhydryl oxidase, dose response, biochemical, H2O2 detection, luminescence, cherry-pick (AID 493248)
# [14] = molecular target: T3, Apoptotic protease-activating factor 1 (Homo sapiens, UniProt O14727); test: SAR analysis of small molecule inhibitors of Apaf-1 in a Fluorescent assay.; assay type: functional; settings: read-out: IC50_Mean
# T3 sequence (O14727 whole entry): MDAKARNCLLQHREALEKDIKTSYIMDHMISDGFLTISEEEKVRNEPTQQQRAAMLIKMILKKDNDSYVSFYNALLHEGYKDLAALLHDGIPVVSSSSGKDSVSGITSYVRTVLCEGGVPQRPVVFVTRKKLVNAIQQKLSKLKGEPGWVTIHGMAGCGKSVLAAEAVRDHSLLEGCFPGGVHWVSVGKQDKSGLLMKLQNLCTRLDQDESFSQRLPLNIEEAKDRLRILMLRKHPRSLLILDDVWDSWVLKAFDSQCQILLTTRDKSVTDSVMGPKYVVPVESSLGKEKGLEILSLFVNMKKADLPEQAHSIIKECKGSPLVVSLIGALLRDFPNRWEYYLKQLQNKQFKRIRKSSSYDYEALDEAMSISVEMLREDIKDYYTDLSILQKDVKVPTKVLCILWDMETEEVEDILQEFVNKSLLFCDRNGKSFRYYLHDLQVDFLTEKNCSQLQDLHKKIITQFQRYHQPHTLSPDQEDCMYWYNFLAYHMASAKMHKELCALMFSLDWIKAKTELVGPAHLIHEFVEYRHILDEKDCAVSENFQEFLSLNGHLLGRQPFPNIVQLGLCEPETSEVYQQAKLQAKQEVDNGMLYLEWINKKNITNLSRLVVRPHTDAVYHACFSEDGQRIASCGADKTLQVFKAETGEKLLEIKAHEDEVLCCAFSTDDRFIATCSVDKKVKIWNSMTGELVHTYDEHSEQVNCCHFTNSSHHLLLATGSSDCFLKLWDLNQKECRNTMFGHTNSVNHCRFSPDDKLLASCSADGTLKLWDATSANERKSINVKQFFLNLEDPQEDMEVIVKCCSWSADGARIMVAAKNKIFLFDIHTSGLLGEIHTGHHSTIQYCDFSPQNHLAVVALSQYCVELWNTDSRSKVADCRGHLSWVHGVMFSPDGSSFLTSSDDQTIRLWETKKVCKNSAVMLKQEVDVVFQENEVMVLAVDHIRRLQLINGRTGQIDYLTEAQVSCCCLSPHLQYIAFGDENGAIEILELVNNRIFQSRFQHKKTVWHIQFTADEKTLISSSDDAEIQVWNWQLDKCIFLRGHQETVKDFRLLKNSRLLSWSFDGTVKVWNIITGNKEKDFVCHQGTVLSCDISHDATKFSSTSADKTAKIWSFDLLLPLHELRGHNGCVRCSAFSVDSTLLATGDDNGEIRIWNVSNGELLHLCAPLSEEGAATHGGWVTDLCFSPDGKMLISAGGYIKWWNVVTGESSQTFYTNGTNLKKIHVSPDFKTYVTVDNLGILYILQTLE
# Voltage-gated inwardly rectifying potassium channel KCNH2, sequence (Q12809 whole entry): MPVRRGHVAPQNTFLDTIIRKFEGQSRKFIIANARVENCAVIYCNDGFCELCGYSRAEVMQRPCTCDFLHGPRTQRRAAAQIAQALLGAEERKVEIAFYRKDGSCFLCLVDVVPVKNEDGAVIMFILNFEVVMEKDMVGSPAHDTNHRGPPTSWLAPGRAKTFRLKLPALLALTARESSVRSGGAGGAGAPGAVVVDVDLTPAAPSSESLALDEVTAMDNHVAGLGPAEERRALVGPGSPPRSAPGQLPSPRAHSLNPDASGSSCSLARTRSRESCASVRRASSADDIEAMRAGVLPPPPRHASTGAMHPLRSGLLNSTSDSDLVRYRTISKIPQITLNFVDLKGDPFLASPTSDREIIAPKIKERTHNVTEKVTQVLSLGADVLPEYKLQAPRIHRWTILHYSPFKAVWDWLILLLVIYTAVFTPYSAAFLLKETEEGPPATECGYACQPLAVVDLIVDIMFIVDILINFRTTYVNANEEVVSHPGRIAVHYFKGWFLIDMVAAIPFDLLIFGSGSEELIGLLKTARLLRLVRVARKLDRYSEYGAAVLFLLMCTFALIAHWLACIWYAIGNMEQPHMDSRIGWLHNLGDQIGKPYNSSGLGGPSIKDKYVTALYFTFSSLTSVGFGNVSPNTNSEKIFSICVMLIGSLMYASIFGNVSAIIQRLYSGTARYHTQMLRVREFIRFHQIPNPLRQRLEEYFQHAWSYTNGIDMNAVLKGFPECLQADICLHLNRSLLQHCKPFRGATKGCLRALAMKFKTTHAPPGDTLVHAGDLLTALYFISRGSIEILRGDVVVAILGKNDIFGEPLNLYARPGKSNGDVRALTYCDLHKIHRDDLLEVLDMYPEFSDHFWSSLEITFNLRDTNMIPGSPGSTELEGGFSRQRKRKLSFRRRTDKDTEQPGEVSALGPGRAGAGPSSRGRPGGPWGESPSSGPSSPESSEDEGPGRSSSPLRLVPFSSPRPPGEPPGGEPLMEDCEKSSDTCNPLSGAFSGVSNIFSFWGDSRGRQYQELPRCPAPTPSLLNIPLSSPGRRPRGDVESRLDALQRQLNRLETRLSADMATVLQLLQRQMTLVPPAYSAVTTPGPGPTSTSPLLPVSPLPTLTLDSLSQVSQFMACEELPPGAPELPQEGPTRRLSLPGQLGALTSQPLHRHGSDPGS
# CAAX prenyl protease 2, sequence (Q9Y256 whole entry): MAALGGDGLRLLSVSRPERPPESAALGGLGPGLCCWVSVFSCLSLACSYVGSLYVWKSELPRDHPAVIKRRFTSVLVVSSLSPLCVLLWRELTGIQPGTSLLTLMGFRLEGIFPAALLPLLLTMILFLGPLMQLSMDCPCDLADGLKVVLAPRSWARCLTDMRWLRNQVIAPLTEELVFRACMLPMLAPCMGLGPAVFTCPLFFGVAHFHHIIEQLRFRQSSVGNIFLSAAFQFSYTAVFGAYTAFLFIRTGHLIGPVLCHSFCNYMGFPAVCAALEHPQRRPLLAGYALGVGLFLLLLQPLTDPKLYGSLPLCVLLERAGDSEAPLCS
# FAD-linked sulfhydryl oxidase ALR, sequence (P55789 whole entry): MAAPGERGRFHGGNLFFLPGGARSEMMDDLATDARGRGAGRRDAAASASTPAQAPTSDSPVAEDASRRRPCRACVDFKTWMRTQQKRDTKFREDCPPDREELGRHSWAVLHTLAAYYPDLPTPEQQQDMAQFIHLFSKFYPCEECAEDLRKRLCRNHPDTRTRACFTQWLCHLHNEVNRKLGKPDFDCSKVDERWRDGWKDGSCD
structure (smiles),measurement,setting,value
CN(N=Cc1ccc([N+](=O)[O-])cc1)c1ccccn1,EC50,[1],51.8 µM (inactive)
same,EC50,[2],37.8 µM (inactive)
Cc1ccc(CSc2ccc(-c3ccc4c(c3)OCO4)nn2)cc1,AC50,[3],1.46 µM (active)
same,AC50,[4],43.6 µM (active)
CC(C)(C)c1ccc(OCC(O)CS(=O)(=O)c2ccccn2)cc1 (centres undefined),AC50,Escherichia coli,23.7 µM (active)
same,EC50,Streptococcus,> 150 µM (not active)
same,EC50,[5],> 150 µM (not active)
same,EC50,Streptokinase A,> 150 µM (not active)
CCN(C[C@H]1N[C@@](CC)(C(=O)OC)[C@H]2C(=O)N(Cc3ccccc3)C(=O)[C@@H]12)S(=O)(=O)c1ccc(C)cc1,AC50,[6],3.4 µM (active)
same,AC50,[7],4.32 µM (active)
same,AC50,[8],2.37 µM (active)
same,EC50,HEK293 [9],> 59.6 µM (inactive)
same,AC50,[10],2.36 µM (active)
same,EC50,HEK293 [11],> 59.6 µM (inactive)
CC(C=O)Cc1ccc(C(C)(C)C)cc1 (centres undefined),AC50,[12],50.1 µM (inconclusive)
CCN(CC)c1ccc(/C=N/NC(=O)C(O)(c2ccccc2)c2ccccc2)o1,AC50,CAAX prenyl protease 2,> 100 µM (inactive)
Cc1ccc(SCc2noc(C(=O)NC(C)C)c2C(=O)O)cc1C,AC50,[13],4.26 µM (active)
same,AC50,Escherichia coli,65.6 µM (active)
O=C1c2cc(Cl)ccc2-n2c1nc1ccccc1c2=O,IC50,[14],60.3 µM (active)
